One data set concerns the target Cytochrome P450 2C19 (Homo sapiens, UniProt P33261). Kind of data set: Cytochrome panel assay with activity outcomes. Panel member name: p450-cyp2c19 Compounds with AC50 equal or less than 10 uM are considered active. The format is functional.
A further data set relates to INS1. Nature of the data set: INS-1E survival protection against cytokine death – cell-based, luminescence, retest, dose response (AID 449756).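 Also: cell death triggered by IL-1 beta plus TNF-alpha plus IFN-gamma mixture; protective hits raise ATP signal compared with cytokine alone wells.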 The class given is functional. As to conditions: Rattus norvegicus.
A short description of data set [1]: Trypanosoma cruzi growth suppression in host cells – NIH3T3 host cells, beta-gal luminescence, confirmation (AID 2044).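 Also: intracellular parasites grown in NIH/3T3 mouse fibroblasts as host cells; luminescent beta-galactosidase reporter signal from transgenic T. cruzi replicating inside host cells; inhibitors lower the luminescence signal.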 The format is functional, cell-based.
Data set [2] in a line: NIH3T3 cell viability loss – ATP luminescence, mouse fibroblasts, counter-screen, dose response (AID 2010).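 Also: cells exposed to compound for about 90 hours before reading.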 The format is functional, cell-based. Background: A counterscreen serves to expose hits that act by an unwanted route or on another target.
A further data set deals with Cytochrome P450 2D6 (Homo sapiens, UniProt P10635).
A short description of data set [3]: Luminescence Cell-Based Dose Retest to Confirm Inhibitors of Cancer Stem Cells. [Related pubchem assays (depositor defined):AID2717, AID2721]. The format is functional. As to conditions: Homo sapiens.
The next data set has as its target Cytochrome P450 3A4 (Homo sapiens, UniProt P08684).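 Also: CYP3A4 tested as one member of a cytochrome P450 panel screen.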

The source made the active and inactive calls.

Sequence of Cytochrome P450 3A4 (P08684 whole entry): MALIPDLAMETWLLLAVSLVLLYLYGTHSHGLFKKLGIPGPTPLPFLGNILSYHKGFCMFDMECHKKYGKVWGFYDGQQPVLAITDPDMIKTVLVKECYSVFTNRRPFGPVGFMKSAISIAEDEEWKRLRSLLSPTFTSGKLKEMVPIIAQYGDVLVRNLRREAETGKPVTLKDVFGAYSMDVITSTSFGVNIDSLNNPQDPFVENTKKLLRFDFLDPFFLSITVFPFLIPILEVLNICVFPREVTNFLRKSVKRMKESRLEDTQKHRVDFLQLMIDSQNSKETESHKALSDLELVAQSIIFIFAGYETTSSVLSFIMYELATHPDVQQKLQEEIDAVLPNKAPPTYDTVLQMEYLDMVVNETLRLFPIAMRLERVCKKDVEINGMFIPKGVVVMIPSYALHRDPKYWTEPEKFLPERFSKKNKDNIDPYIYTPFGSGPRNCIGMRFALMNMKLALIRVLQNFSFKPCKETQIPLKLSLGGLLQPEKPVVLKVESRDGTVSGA
Sequence of Cytochrome P450 2C19 (P33261 whole entry): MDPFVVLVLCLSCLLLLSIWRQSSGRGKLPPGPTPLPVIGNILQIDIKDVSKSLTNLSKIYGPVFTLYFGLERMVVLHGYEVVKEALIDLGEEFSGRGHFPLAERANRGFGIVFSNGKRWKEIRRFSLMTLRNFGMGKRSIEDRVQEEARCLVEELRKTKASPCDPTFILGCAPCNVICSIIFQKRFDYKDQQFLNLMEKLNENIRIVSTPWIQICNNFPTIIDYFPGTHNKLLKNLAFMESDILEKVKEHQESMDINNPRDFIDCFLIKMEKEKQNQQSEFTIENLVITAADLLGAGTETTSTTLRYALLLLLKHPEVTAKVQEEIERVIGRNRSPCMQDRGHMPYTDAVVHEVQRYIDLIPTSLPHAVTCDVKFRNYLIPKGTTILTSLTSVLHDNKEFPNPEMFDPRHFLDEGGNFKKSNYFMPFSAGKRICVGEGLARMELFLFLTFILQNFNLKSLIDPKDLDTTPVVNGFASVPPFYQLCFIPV
Sequence of Cytochrome P450 2D6 (P10635 whole entry): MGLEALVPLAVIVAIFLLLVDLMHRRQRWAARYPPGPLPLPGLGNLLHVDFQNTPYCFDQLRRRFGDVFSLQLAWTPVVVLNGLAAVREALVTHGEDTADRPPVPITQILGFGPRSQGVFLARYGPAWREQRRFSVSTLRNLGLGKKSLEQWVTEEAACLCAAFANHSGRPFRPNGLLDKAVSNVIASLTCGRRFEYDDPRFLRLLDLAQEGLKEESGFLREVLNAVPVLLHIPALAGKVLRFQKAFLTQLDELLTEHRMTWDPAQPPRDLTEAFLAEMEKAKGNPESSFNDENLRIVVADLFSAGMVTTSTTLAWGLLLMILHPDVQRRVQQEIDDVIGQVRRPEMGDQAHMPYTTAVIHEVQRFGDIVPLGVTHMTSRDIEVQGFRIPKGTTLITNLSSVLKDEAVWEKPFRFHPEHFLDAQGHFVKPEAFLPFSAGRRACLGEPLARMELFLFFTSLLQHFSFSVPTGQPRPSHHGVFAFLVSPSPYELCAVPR

Regarding `NC1=NC(Nc2ccc(F)cc2F)=NC2(CCCCC2)N1`, the half-maximal activity concentration (AC50) on Cytochrome P450 2C19 (read-out: AC50) was 3.16 µM (inconclusive).

In the case of `COc1ccccc1N1CCNCC1`, the half-maximal activity concentration (AC50) entry at Cytochrome P450 2C19 is recorded as “inconclusive”.

As to `CC(=O)c1ccc(OCc2cc(C(=O)N3CCCCC3c3cccnc3)no2)cc1` (stereo not given), the AC50 in the data set on INS1 is 14.3 µM (active).

`CN(CC(=O)Nc1ccc(S(=O)(=O)N2CCCC2)cc1)Cc1ccc(Cl)cc1`: the values for the EC50 in data set [1] and in data set [2] were 1.58 µM (active) and > 60 µM (not active), respectively.

As for `Cn1c([N+](=O)[O-])cnc1CN1CCN(CCO)CC1`, the half-maximal activity concentration (AC50) result on Cytochrome P450 2C19 is given as “inconclusive”.

Take `c1ccc(Nc2cccc3c(Nc4ccccc4)cccc23)cc1`: the EC50 in data set [1] was 1.14 µM (active); in data set [2], > 60 µM (not active).

Regarding `CN(C)c1ccc(/C=C(\C#N)C(=O)OCC(=O)N(C)C2CCS(=O)(=O)C2)cc1` (stereo not given), the AC50 with INS1 was > 260 µM (inactive).

Consider `CCC1CCCCN1Cc1cc(OC)c(O)c([N+](=O)[O-])c1` (stereo not given), for which the AC50 at Cytochrome P450 2D6 is 14.1 µM (inconclusive).

On to `NC(=O)CC(NC(=O)c1ccc(Br)cc1)c1ccc(N2CCCCCCC2)c([N+](=O)[O-])c1` (stereo not given), for which the AC50 in data set [3] was 8.2 µM (active).

Take `Cc1ccc(NC(=O)NCC2CCN(Cc3cccc(Cl)c3)CC2)cc1Cl`: the concentration for a half-maximal effect (EC50) in data set [1] was 1.03 µM (active); in data set [2], > 60 µM (not active). Moreover, the half-maximal activity concentration (AC50) with INS1 is 12.8 µM (active); in data set [3] it was 8.54 µM (active).

`COCCN1CN=C(Nc2nc3ccccc3s2)NC1`: the AC50 on Cytochrome P450 2D6 was 11.2 µM (inconclusive).

`Cc1[nH]n(C(C)(C)C)c(=O)c1Sc1ccc(Cl)cc1`: the EC50 in data set [1] was 16.3 µM (active); in data set [2] it was > 60 µM (not active).

Take `Clc1ccc(Cl)c(OCCCCN2CCNCC2)c1`: the EC50 in data set [1] was 3.42 µM (active); in data set [2], 9.24 µM (active). Moreover, in data set [3], the concentration at half-maximal activity (AC50) is 2.41 µM (active).

Regarding `CN(C)CCCn1c2c(c(SCC(=O)Nc3cccc4ccccc34)nc1=O)CCC2`, the 50% effective concentration (EC50) was 2.04 µM (active) in data set [1] and > 60 µM (not active) in data set [2].

As to `O=C1CCCC2=C1C(c1ccc(OS(=O)(=O)c3ccc(Cl)cc3)cc1)C1=C(CCCC1=O)O2`, the AC50 at Cytochrome P450 2D6 was 12.6 µM (inconclusive).

With `COc1ccc(CN2CCN(C(=O)C3CCC(CNS(=O)(=O)c4ccc(C)cc4)CC3)CC2)c(OC)c1OC` (stereo not given), the EC50 is 0.404 µM (active) in data set [1] and > 60 µM (not active) in data set [2].

For the molecule `O=C(OCc1nc2ccccc2s1)c1ccc(Br)s1`, at Cytochrome P450 3A4, the AC50 was 25.1 µM (inconclusive).

As to `CCC(=O)Nc1nc(C)c(-c2csc(Nc3cccc(O)c3)n2)s1`, in data set [3], the AC50 is 0.188 µM (active).

In the case of `c1ccc(-c2cccc(N3CCC4(CCNCC4)CC3)c2)cc1`, the AC50 on Cytochrome P450 2D6 was 39.8 µM (inconclusive).

As to `COc1ncc2nc(-c3ccccc3)c(=O)n(C[C@H]3CCCO3)c2n1`, on Cytochrome P450 3A4, the half-maximal activity concentration (AC50) was 25.1 µM (inconclusive).

For the molecule `Oc1ccccc1CNCc1ccccc1O`, at Cytochrome P450 2D6, the AC50 was 3.16 µM (inconclusive).

Turning to `Cc1nc2cnc(N3CCNCC3)nc2n(Cc2cccs2)c1=O`, on Cytochrome P450 2D6, the concentration at half-maximal activity (AC50) is 12.6 µM (inconclusive).

`CC(=O)c1ccc(NC(=O)C(Cc2ccccc2)NC(=O)c2ccco2)cc1` (stereo not given): on Cytochrome P450 3A4, the half-maximal activity concentration (AC50) was 28.2 µM (inconclusive).

`CN(C)c1ccc(-c2nccc(NCCN3CCOCC3)n2)cc1`: the values for the AC50 at Cytochrome P450 2C19 (read-out: AC50), on Cytochrome P450 2D6 and at Cytochrome P450 3A4 were 15.8 µM (inconclusive), 39.8 µM (inconclusive) and 25.1 µM (inconclusive), respectively.

Regarding `Cn1nnnc1SCCNCc1cccc2ccccc12`, the EC50 in data set [1] and in data set [2] was > 60 µM (not active) each time.

On to `O=C(Cn1cnc([N+](=O)[O-])n1)N/N=C/c1ccc2ccccc2c1`, for which the EC50 in data set [1] was 0.333 µM (active); in data set [2], > 60 µM (not active).

As to `O=S(=O)(c1cccc(-c2nnc(-c3ccc(Br)cc3)o2)c1)N1CCCCCC1`, the AC50 on Cytochrome P450 2C19 (read-out: AC50) was 11.2 µM (inconclusive).

Take `COc1cccc(C(=O)N(C)c2nnc(-c3ccncc3)s2)c1`: the AC50 at Cytochrome P450 3A4 was 6.31 µM (inconclusive).

Turning to `Cc1ccc(/C=N/NC(=O)CNC(=O)COc2ccccc2)o1`, the AC50 in data set [3] is > 195 µM (inactive).

As to `O=C(CN1CCN(c2ccc(O)cc2)CC1)Nc1ccc(SC(F)F)cc1`, the AC50 in data set [3] was 6.49 µM (active).

Take `O=C(Nc1ncc(S(=O)(=O)c2ccc([N+](=O)[O-])cc2)s1)c1ccc2ccccc2c1`: the EC50 in data set [1] is 0.128 µM (active); in data set [2], > 60 µM (not active). The concentration at half-maximal activity (AC50) in data set [3] was 2.11 µM (active).

With `CC[C@H]1CN2CCc3cc(OC)c(OC)cc3[C@H]2C[C@@H]1C[C@H]1NCCc2c1[nH]c1ccc(O)cc21`, on Cytochrome P450 2D6, the AC50 was 3.98 µM (inconclusive).

As to `C=CCc1cccc(/C=N/NC(=O)c2ccccc2OC)c1O`, the figures for the EC50 in data set [1] and in data set [2] were 2.2 µM (active) and > 60 µM (not active), respectively. The half-maximal activity concentration (AC50) in the data set with INS1 was 3.06 µM (active).

With `CCc1ccc(-c2csc(NC(=O)C3CCCO3)c2C(=O)OC(C)C)cc1` (stereo not given), the AC50 on Cytochrome P450 3A4 is 28.2 µM (inconclusive).

For `O=C(NCCCN1CCCC1=O)c1ccc([N+](=O)[O-])s1`, the EC50 is 0.534 µM (active) in data set [1] and > 30 µM (not active) in data set [2].

As to `COc1ccc(C(=O)c2c(C)c3ccccc3n2CC(O)CNC(C)C)cc1` (stereo not given), the concentration at half-maximal activity (AC50) in the data set with INS1 was 30.1 µM (active).

On to `CNC(=S)N(Cc1cccs1)Cc1cc2cc(OC)c(OC)cc2nc1O`, for which, in the data set with INS1, the AC50 was 99.3 µM (active).

Consider `CCCCCc1nc2c(C#N)c(-c3ccc(Cl)cc3)ccn2n1`, for which the AC50 on Cytochrome P450 3A4 is 25.1 µM (inconclusive).

Turning to `O=C(COc1ccc(Br)cc1Cl)NC1CCN(Cc2ccccc2)CC1`, the 50% effective concentration (EC50) is 0.165 µM (active) in data set [1] and > 60 µM (not active) in data set [2].

For the molecule `COc1cc(C)ccc1OCCOc1cc(C)ccc1Cl`, the AC50 at Cytochrome P450 2C19 (read-out: AC50) was 5.62 µM (inconclusive).

`O=C(NC(=S)NCc1cccnc1)c1cccc2ccccc12`: the 50% effective concentration (EC50) in data set [1] is 0.505 µM (active); in data set [2], > 60 µM (not active).

`CC(=O)NCCNc1nc(-c2ccc3c(c2)OCO3)nc2ccccc12`: the concentration at half-maximal activity (AC50) at Cytochrome P450 2C19 (read-out: AC50) was 39.8 µM (inconclusive).

For the molecule `COc1ccc(S(=O)(=O)N2CCC(N3CCCCC3)CC2)cc1`, the AC50 on Cytochrome P450 2C19 (read-out: AC50) was 39.8 µM (inconclusive).

As to `COc1cccc(NC(=O)Nc2ccc(C)c(Cl)c2)c1`, the results for the EC50 in data set [1] and in data set [2] were 2.41 µM (active) and > 30 µM (not active), respectively.

For `C/C(Cn1cnc([N+](=O)[O-])n1)=N/NC(=O)COc1ccccc1Cl`, the values for the concentration for a half-maximal effect (EC50) in data set [1] and in data set [2] were 0.154 µM (active) and > 60 µM (not active), respectively.

With `CCC(CO)Oc1cc(NCc2ccc(C)c(C)c2)c2ncn(C(C)C)c2c1` (stereo not given), the concentration at half-maximal activity (AC50) in the data set on INS1 was 5.86 µM (active).

As for `O=c1c2ccccc2[nH]c(=S)n1CCCN1CCC(Cc2ccccc2)CC1`, the EC50 is 0.161 µM (active) in data set [1] and > 60 µM (not active) in data set [2].

On to `COCCCn1c(=N)c(C(N)=S)cc2c(=O)n3cccc(C)c3nc21`, for which the 50% effective concentration (EC50) in data set [1] is 1.34 µM (active); in data set [2], > 60 µM (not active).

In the case of `CN(C)C(=O)c1ccc(-c2ccc3ncnc(Nc4ccc(F)cc4)c3c2)cc1`, on Cytochrome P450 2C19 (read-out: AC50), the AC50 was 25.1 µM (inconclusive).

`O=C(NC1(Cc2ccccc2)CCN(CCCc2ccccc2)C1=O)c1ccccc1` (stereo not given): in the data set with INS1, the AC50 was 2.75 µM (active).

For `Cc1ccc(OCC(O)Cn2c3ccccc3c3ccccc32)cc1` (stereo not given), the AC50 in data set [3] is 4.84 µM (active).

As for `CCCCCCOc1ccc(OC(=O)c2cccnc2)cc1`, the AC50 in data set [3] was 3.33 µM (active).

Regarding `CSc1nc2ccccc2cc1/C=C(\C#N)c1ccc(Cl)cc1Cl`, at Cytochrome P450 2D6, the AC50 is 1.58 µM (inconclusive).

Take `COc1cc(Br)c(/C=C/c2ccc3cccc(O)c3n2)cc1OC`: the values for the half-maximal effective concentration (EC50) in data set [1] and in data set [2] were 0.831 µM (active) and > 60 µM (not active), respectively.

Consider `CCNS(=O)(=O)c1ccc(NC(=O)c2cc(C(F)(F)F)nn2C)cc1`, for which the half-maximal activity concentration (AC50) on Cytochrome P450 3A4 was 6.31 µM (inconclusive).

For the molecule `CN(C(=O)COc1cccc(Br)c1)C1CCS(=O)(=O)C1` (stereo not given), at Cytochrome P450 2C19 (read-out: AC50), the half-maximal activity concentration (AC50) is 22.4 µM (inconclusive).

In the case of `Nc1ccc(N2CCN(Cc3ccccc3Cl)CC2)c(Cl)c1`, the AC50 in data set [3] was 2.45 µM (active).

Regarding `O=C(CCCCN1CCCCC1)c1ccc2c(c1)Cc1ccccc1-2`, the half-maximal effective concentration (EC50) in data set [1] was 1.9 µM (active); in data set [2], 13.6 µM (active).

On to `COCC(=O)N1CCC2(CCCN(c3cccc(-c4ccccc4)c3)C2)CC1`, for which the AC50 on Cytochrome P450 2D6 was 39.8 µM (inconclusive); on Cytochrome P450 3A4 it was 12.6 µM (inconclusive).

Consider `CCC(CO)Oc1cc(NCc2ccc(Cl)cc2Cl)c2ncn(C(C)C)c2c1` (stereo not given), for which the half-maximal activity concentration (AC50) in data set [3] was 8.14 µM (active).

With `O=C(O)Cc1c[nH]cn1` [IMIDAZOLE ACETIC ACID], at Cytochrome P450 3A4, the concentration at half-maximal activity (AC50) was 31.6 µM (inconclusive).

With `C=C[C@]1(C)C[C@H](OC(=O)CO)[C@]2(C)C3C(=O)CC[C@]3(CC[C@H]2C)[C@H](C)[C@H]1O` (stereo not given in full), the AC50 at Cytochrome P450 3A4 was 3.16 µM (inconclusive).

A word on the AC50: it is the midpoint of the concentration-response curve, whichever way the signal moves. Usually EC50 stands for the concentration that produces a half-maximal response.

The record behind these values is ChEMBL document CHEMBL1201862, “PubChem BioAssay data set” (2004).
